Publication PMC11784839, “Monoaminergic neurotransmitters are bimodal effectors of tau aggregation” (Science Advances, 2025)

Target: tau (Homo sapiens, UniProt P10636)
Assay: MCE Phenols Library screening, tau biosensor cell seeding assay (AvZ)
Assay type: cell-based
Conditions: for Z repl 1 / Z Repl 2: Z score; for Z repl 1 / raw data 1: replicate 1; for Z Repl 2 / raw data 2: replicate 2; for AvZ (average z score of seeding, SDs from the mean level of seeding): 10 μM phenol in cell cultures, AD brain homogenate preincubated 16 hours, two biological replicates, positive = catalyzes seeding, negative = inhibits
[1] = average Z score of the two replicates, MCE Phenols Library screen
[2] = average puncta of the two replicates
[3] = average Z score of two replicates, Phenols Library screen
[4] = average Z score of the two replicates, tau seeding

Sequence of tau (P10636 623-695 limits assumed): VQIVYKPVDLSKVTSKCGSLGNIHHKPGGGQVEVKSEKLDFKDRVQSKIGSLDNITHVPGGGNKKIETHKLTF

Z repl 1 | Z Repl 2 | av Z [1] | av puncta [2] | raw data 1 (raw puncta) | raw data 2 (raw puncta) | av puncta (average of raw data 1 and 2) | raw data 1 (puncta) | raw data 2 (puncta) | av Z [3] | av Z [4] | av Z (average Z score of the two replicates, tau biosensor seeding, MCE Phenols Library screen) | SMILES | AvZ (average z score of seeding, SDs from the mean level of seeding)
0.055 | -0.946 | -0.446 | 14831.1 | 27004.8 | 2657.32 | – | – | – | – | – | – | O=C1c2ccccc2C(=O)c2c(O)c(O)cc(O)c21 [Purpurin] | –
-0.028 | -0.648 | – | 15926.2 | 26009.1 | 5843.4 | – | – | – | – | – | – | O=C(O)c1cccc(O)c1O [Pyrocatechuic acid] | -0.338
-1.577 | -1.176 | -1.376 | – | – | – | 3815.32 | 7422.91 | 207.732 | – | – | – | O=c1c(O)c(-c2ccc(O)c(O)c2)oc2cc(O[C@@H]3O[C@H](CO)[C@@H](O)[C@H](O)[C@H]3O)c(O)c(O)c12 [Quercetagitrin] | –
-1.021 | -0.252 | -0.637 | 12081.4 | – | – | – | 14091.5 | 10071.4 | – | – | – | O=C1c2ccccc2C(=O)c2c(O)ccc(O)c21 [Quinizarin] | –
-0.355 | -0.816 | -0.586 | 13066.7 | – | – | – | 22084.8 | 4048.5 | – | – | – | Oc1ccc(/C=C/c2cc(O)cc(O)c2)cc1 [Resveratrol] | –
-0.491 | -0.104 | -0.297 | 16057.3 | 20455.1 | 11659.4 | – | – | – | – | – | – | O=c1c(O[C@@H]2OC[C@@H](O)[C@H](O)[C@H]2O)c(-c2ccc(O)c(O)c2)oc2cc(O)cc(O)c12 [Reynoutrin] | –
-0.386 | 0.151 | – | – | – | – | 18050.7 | 21720.4 | 14381.1 | -0.117 | – | – | COc1cc(O)c2c(=O)c(O)c(-c3ccc(O)c(O)c3)oc2c1 [Rhamnetin] | –
0.64 | 0.434 | – | – | – | – | 25718.8 | 34038.2 | 17399.4 | – | 0.537 | – | O=C(O)c1cc(O)c2c(c1)C(=O)c1cccc(O[C@@H]3O[C@H](CO)[C@@H](O)[C@H](O)[C@H]3O)c1C2=O [Rhein 8-Glucoside] | –
– | -1.086 | -1.13 | – | – | – | 6714.99 | 12258.1 | 1171.9 | – | – | – | C[C@@H]1O[C@@H](Oc2cc(O)c3c(=O)c(O)c(-c4ccc(O)cc4)oc3c2O)[C@H](O)[C@H](O)[C@H]1O [Rhodionin] | –
0.9 | -0.094 | – | – | – | – | 24460.4 | 37158.3 | 11762.4 | – | 0.403 | – | C[C@@H]1O[C@@H](O[C@H]2[C@H](Oc3cc(O)c4c(=O)cc(-c5ccc(O)cc5)oc4c3)O[C@H](CO)[C@@H](O)[C@@H]2O)[C@H](O)[C@H](O)[C@H]1O [Rhoifolin] | –
-0.499 | -0.831 | -0.665 | 12124.5 | – | – | – | 20360.8 | 3888.25 | – | – | – | O=c1c(O)c(-c2cc(O)c(O)c(O)c2)oc2cc(O)ccc12 [Robinetin] | –
0.02 | -0.843 | -0.411 | 15180.1 | 26593.3 | 3766.89 | – | – | – | – | – | – | CC1OC(OCC2OC(Oc3c(-c4ccc(O)cc4)oc4cc(OC5OC(C)C(O)C(O)C5O)cc(O)c4c3=O)C(O)C(O)C2O)C(O)C(O)C1O (centres unmarked) [Robinin] | –
0.29 | 0.728 | – | – | – | – | 25188.7 | 29833.7 | 20543.7 | – | 0.509 | – | COc1c2ccoc2nc2c(O)cccc12 [Robustine] | –
-0.371 | -0.506 | -0.438 | 14630.2 | 21894.6 | 7365.88 | – | – | – | – | – | – | COc1ccc(-c2oc3c(CC=C(C)C)c(O)cc(O)c3c(=O)c2O[C@@H]2O[C@@H](C)[C@H](O)[C@@H](O)[C@H]2O[C@@H]2O[C@H](CO)[C@@H](O)[C@H](O)[C@H]2O)cc1 [Sagittatoside A] | –
0.003 | -0.01 | – | – | – | – | 19521.3 | 26379.5 | 12663.1 | -0.004 | – | – | COc1cc(O)c2c(c1)O[C@H](c1ccc(O)cc1)CC2=O [Sakuranetin] | –
-1.015 | -0.017 | – | 13372.8 | – | – | – | 14164.1 | 12581.6 | – | – | – | O=C(O)c1ccccc1O [Salicylic acid, reference compound] | -0.516
-0.397 | -0.108 | -0.253 | 16597.3 | 21578.6 | 11616.1 | – | – | – | – | – | – | COc1cc2c(c(O)c1OC)-c1c(cc(OC)c(OC)c1OC)C[C@@H](C)[C@@H](C)C2 [Schisanhenol] | –
-0.619 | -1.142 | -0.88 | – | – | – | 9747.69 | 18922.2 | 573.179 | – | – | – | O=c1cc(-c2ccc(O)cc2)oc2cc(O)c(O)c(O)c12 [Scutellarein] | –
1.372 | 0.426 | – | – | – | – | 30068 | 42819.5 | 17316.5 | – | – | 0.899 | COc1cc(C[C@@H](CO)[C@H](CO)Cc2ccc(O)c(OC)c2)ccc1O [Secoisolariciresinol] | –
0.553 | -0.073 | – | – | – | – | 22482.9 | 32984.9 | 11981 | – | 0.24 | – | O=C(O)c1cc(O)c2c(c1)[C@H]([C@H]1c3cccc(O)c3C(=O)c3c(O)cc(C(=O)O)cc31)c1cccc(O)c1C2=O [Sennidin B] | –

SMILES | Z repl 1 | Z Repl 2 | av Z [1] | av puncta [2] | raw data 1 (raw puncta) | raw data 2 (raw puncta) | av puncta (average of raw data 1 and 2) | raw data 1 (puncta) | raw data 2 (puncta) | av Z [3] | av Z [4] | av Z (average Z score of the two replicates, tau biosensor seeding, MCE Phenols Library screen) | AvZ (average z score of seeding, SDs from the mean level of seeding)
Oc1cccc(O)c1O [Pyrogallol] | -0.635 | -1.067 | – | – | – | – | 10051 | 18727.1 | 1374.88 | – | – | – | -0.851
O=c1c(O)c(-c2ccc(O)c(O)c2)oc2cc(O)c(O)c(O)c12 [Quercetagetin] | -1.958 | -1.183 | -1.57 | – | – | – | 1487.44 | 2842.17 | 132.721 | – | – | – | –
O.O.O=c1c(O)c(-c2ccc(O)c(O)c2)oc2cc(O)cc(O)c12 [Quercetin (dihydrate)] | -1.56 | -1.162 | -1.361 | – | – | – | 3988.66 | 7625.22 | 352.104 | – | – | – | –
C[C@@H]1O[C@@H](Oc2c(-c3ccc(O)c(O)c3)oc3cc(O)cc(O)c3c2=O)[C@H](O)[C@H](O)[C@H]1O [Quercitrin] | -0.089 | -0.329 | -0.209 | 17263.5 | 25279.8 | 9247.27 | – | – | – | – | – | – | –
CC(=O)CCc1ccc(O)cc1 [Raspberry ketone] | 0.027 | -0.77 | – | 15608.2 | 26674.5 | 4541.81 | – | – | – | – | – | – | -0.371
COc1cc(O)c2c(=O)c(OC)c(-c3ccc(OC)c(OC)c3)oc2c1 [Retusin] | -0.575 | -0.37 | -0.472 | 14132.2 | – | – | – | 19450.4 | 8814.06 | – | – | – | –
CC(=O)c1c(O)c(C)c(O)c(Cc2c(O)c3c(c(C(=O)/C=C/c4ccccc4)c2O)OC(C)(C)C=C3)c1O [Rottlerin] | 0.296 | 1.083 | – | – | – | – | 27122.4 | 29908.4 | 24336.4 | – | 0.69 | – | –
OCc1ccccc1O [Salicyl alcohol] | -0.325 | -0.555 | – | 14639.5 | 22445.8 | 6833.28 | – | – | – | – | – | – | -0.44
O=C(/C=C/c1ccc(O)c(O)c1/C=C/c1ccc(O)c(O)c1)O[C@H](Cc1ccc(O)c(O)c1)C(=O)O [Salvianolic acid A] | -2.14 | -1.185 | -1.663 | – | – | – | 383.467 | 661.17 | 105.765 | – | – | – | –
O=C(/C=C/c1ccc(O)c2oc(-c3ccc(O)c(O)c3)cc12)O[C@H](Cc1ccc(O)c(O)c1)C(=O)O [Salvianolic acid C] | -1.645 | -1.179 | -1.412 | – | – | – | 3386.53 | 6602.17 | 170.893 | – | – | – | –
O=C(O)[C@H]1O[C@@H](Oc2cc3oc(-c4ccc(O)cc4)cc(=O)c3c(O)c2O)[C@H](O)[C@@H](O)[C@@H]1O [Scutellarin] | -1.927 | -0.903 | -1.415 | – | – | – | 3169.77 | 3217.73 | 3121.8 | – | – | – | –
O=C(O)c1cc(O)c2c(c1)[C@H]([C@H]1c3cc(C(=O)O)cc(O)c3C(=O)c3c(O[C@@H]4O[C@H](CO)[C@@H](O)[C@H](O)[C@H]4O)cccc31)c1cccc(O[C@@H]3O[C@H](CO)[C@@H](O)[C@H](O)[C@H]3O)c1C2=O [Sennoside A] | -1.043 | -0.801 | -0.922 | – | – | – | 9021.29 | 13826.4 | 4216.17 | – | – | – | –
